Reference: PubChem BioAssay (NCI)
Several values for one entry are separate records, joined by “and”; a condition that tells them apart may be missing. Equal values may be shown once.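 Dose response: 5 concentrations. Exposure: 48 h. Format: 96-well plates. Endpoint: linear interpolation; highest concentration if not reached. At the GI50, growth is halved. The concentration for full growth arrest is given as TGI.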

Tests used:
Assay in all cases: NCI tumour cell line growth inhibition, 48 h
786-0 renal = system: 786-0 renal
A498 renal = system: A498 renal
CAKI-1 renal = system: CAKI-1 renal
CCRF-CEM leukemia = system: CCRF-CEM leukemia
MCF7 breast = system: MCF7 breast
OVCAR-3 ovarian = system: OVCAR-3 ovarian
OVCAR-4 ovarian = system: OVCAR-4 ovarian
SF-295 CNS = system: SF-295 CNS
SK-MEL-2 melanoma = system: SK-MEL-2 melanoma
SK-OV-3 ovarian = system: SK-OV-3 ovarian

O=S1(=O)N=C(SCc2c[nH]c3ccccc23)N(c2ccccc2)c2ccncc21
TGI (786-0 renal): 65.5 µM
TGI (A498 renal): 82.2 µM
TGI (CAKI-1 renal): > 100 µM
TGI (CCRF-CEM leukemia): > 100 µM
TGI (MCF7 breast): > 100 µM
TGI (OVCAR-3 ovarian): > 100 µM
TGI (OVCAR-4 ovarian): > 100 µM
TGI (SF-295 CNS): > 100 µM
TGI (SK-MEL-2 melanoma): > 100 µM
TGI (SK-OV-3 ovarian): > 100 µM

COC(=O)CCCc1nc2ccccc2nc1N=Nc1ccccc1
TGI (786-0 renal): > 100 µM
TGI (A498 renal): > 100 µM
TGI (CAKI-1 renal): > 100 µM
TGI (CCRF-CEM leukemia): 72.7 µM
TGI (MCF7 breast): > 100 µM
TGI (OVCAR-3 ovarian): > 100 µM
TGI (OVCAR-4 ovarian): > 100 µM
TGI (SF-295 CNS): > 100 µM
TGI (SK-MEL-2 melanoma): > 100 µM
TGI (SK-OV-3 ovarian): > 100 µM

CCN(CC)CC[n+]1ccc2c(C)c3[nH]c4ccccc4c3c(C)c2c1
TGI (786-0 renal): 5.96 µM
TGI (A498 renal): 25.2 µM and 28.8 µM and 17.9 µM
GI50 (CAKI-1 renal): 8.97 µM
TGI (CAKI-1 renal): 10.3 µM and > 38.3 µM and 7.08 µM
GI50 (CCRF-CEM leukemia): 0.245 µM and 0.0957 µM
TGI (CCRF-CEM leukemia): 4.33 µM and 2.1 µM and 2.27 µM
GI50 (MCF7 breast): 0.323 µM
TGI (MCF7 breast): 7.36 µM and 5.5 µM and 2.47 µM
GI50 (OVCAR-3 ovarian): 0.934 µM
TGI (OVCAR-3 ovarian): 2.02 µM and 4.55 µM and 2.07 µM
GI50 (OVCAR-4 ovarian): 0.192 µM and 0.799 µM and 0.0865 µM
TGI (OVCAR-4 ovarian): 1.2 µM and 4.27 µM and 0.483 µM
GI50 (SF-295 CNS): 1.28 µM
TGI (SF-295 CNS): 6.9 µM and 15.1 µM and 6.83 µM
GI50 (SK-MEL-2 melanoma): 1.4 µM
TGI (SK-MEL-2 melanoma): 1.56 µM and 3.43 µM and 1.29 µM
GI50 (SK-OV-3 ovarian): 1.35 µM and 2.62 µM and 3.92 µM
TGI (SK-OV-3 ovarian): 6.13 µM and 11.7 µM and 11.4 µM

CCOC(=O)c1cnc2n(c1=O)[C@H]1CCCC[C@@H]1N2
TGI (786-0 renal): > 100 µM
TGI (A498 renal): > 100 µM
TGI (CAKI-1 renal): > 100 µM
TGI (CCRF-CEM leukemia): > 100 µM
TGI (MCF7 breast): > 100 µM
TGI (OVCAR-3 ovarian): > 100 µM
TGI (OVCAR-4 ovarian): > 100 µM
TGI (SF-295 CNS): > 100 µM
TGI (SK-MEL-2 melanoma): > 100 µM
TGI (SK-OV-3 ovarian): > 100 µM

Cc1oc(N)c(S(=O)(=O)/C(C#N)=C/c2ccccc2[N+](=O)[O-])c1C
TGI (786-0 renal): 92.6 µM
TGI (A498 renal): > 100 µM
TGI (CAKI-1 renal): 53.9 µM
TGI (CCRF-CEM leukemia): 68.5 µM
TGI (MCF7 breast): > 100 µM
TGI (OVCAR-3 ovarian): 46.3 µM
TGI (OVCAR-4 ovarian): > 100 µM
TGI (SF-295 CNS): > 100 µM
TGI (SK-MEL-2 melanoma): > 100 µM
TGI (SK-OV-3 ovarian): > 100 µM

O=[N+]([O-])/C(Cl)=C(\NCCO)C(Cl)=C(Cl)Cl
TGI (786-0 renal): 73.8 µM
TGI (A498 renal): > 100 µM
TGI (CAKI-1 renal): > 100 µM
TGI (CCRF-CEM leukemia): 52.1 µM
TGI (MCF7 breast): > 100 µM
TGI (OVCAR-3 ovarian): > 100 µM
TGI (OVCAR-4 ovarian): > 100 µM
TGI (SF-295 CNS): > 100 µM
TGI (SK-MEL-2 melanoma): > 100 µM
TGI (SK-OV-3 ovarian): > 100 µM

O=C(NC1=C(Cl)C(=O)c2ccccc2C1=O)C(=O)c1c(O)c2ccccc2oc1=O
TGI (786-0 renal): 19 µM
TGI (A498 renal): 33.9 µM
TGI (CAKI-1 renal): 22.6 µM
TGI (CCRF-CEM leukemia): > 30.7 µM
TGI (MCF7 breast): 8.39 µM
TGI (OVCAR-3 ovarian): 6.79 µM
TGI (OVCAR-4 ovarian): 19.4 µM
TGI (SF-295 CNS): 9.58 µM
TGI (SK-MEL-2 melanoma): 10.3 µM
TGI (SK-OV-3 ovarian): 27.4 µM

C[C@@H]1C[C@@H]2OC(=O)[C@]3(C)[C@H]2[C@@H](OC3(C)O)[C@]2(C)C(=O)C=C[C@@H]12 (stereo partly drawn)
TGI (786-0 renal): > 100 µM
TGI (A498 renal): 70.6 µM
TGI (CAKI-1 renal): 62.1 µM
TGI (CCRF-CEM leukemia): 31.8 µM
TGI (MCF7 breast): 32.7 µM
TGI (OVCAR-3 ovarian): 44.3 µM
TGI (OVCAR-4 ovarian): 35.9 µM
TGI (SF-295 CNS): > 100 µM
TGI (SK-MEL-2 melanoma): 54.7 µM
TGI (SK-OV-3 ovarian): > 100 µM

C=CCN1C(=O)C[C@H](Cc2ccccc2)NC(=O)C[C@H](Cc2ccccc2)N(CC=C)C(=O)C[C@H](Cc2ccccc2)NC(=O)C[C@@H]1Cc1ccccc1
TGI (786-0 renal): > 100 µM
TGI (A498 renal): > 100 µM
TGI (CAKI-1 renal): > 100 µM
TGI (CCRF-CEM leukemia): > 100 µM
TGI (MCF7 breast): > 100 µM
TGI (OVCAR-3 ovarian): > 100 µM
TGI (OVCAR-4 ovarian): 72 µM
TGI (SF-295 CNS): > 100 µM
TGI (SK-MEL-2 melanoma): > 100 µM
TGI (SK-OV-3 ovarian): > 100 µM

Cc1cccc(NC(=S)Nc2cccc(Cl)c2)n1
TGI (786-0 renal): > 100 µM
TGI (A498 renal): > 100 µM
TGI (CAKI-1 renal): > 100 µM
TGI (CCRF-CEM leukemia): > 100 µM
TGI (MCF7 breast): > 100 µM
TGI (OVCAR-3 ovarian): > 100 µM
TGI (OVCAR-4 ovarian): > 100 µM
TGI (SF-295 CNS): > 78.4 µM
TGI (SK-MEL-2 melanoma): > 100 µM
TGI (SK-OV-3 ovarian): 98.6 µM

Cc1noc(-c2ccc(C(=O)O)[nH]2)c1Br
TGI (786-0 renal): 91.9 µM
TGI (A498 renal): > 100 µM
TGI (CAKI-1 renal): > 100 µM
TGI (CCRF-CEM leukemia): > 100 µM
TGI (MCF7 breast): > 100 µM
TGI (OVCAR-3 ovarian): > 100 µM
TGI (OVCAR-4 ovarian): > 100 µM
TGI (SF-295 CNS): > 100 µM
TGI (SK-MEL-2 melanoma): > 100 µM
TGI (SK-OV-3 ovarian): > 100 µM

C[C@]12CC[C@H]3[C@@H](CC=C4C[C@@H](O)CC[C@@]43C)[C@@H]1C/C(=C\c1ccc([N+](=O)[O-])cc1)[C@@H]2O
TGI (786-0 renal): 22.8 µM
TGI (A498 renal): 42.4 µM
TGI (CAKI-1 renal): 36.8 µM
TGI (CCRF-CEM leukemia): > 100 µM
TGI (MCF7 breast): 19.6 µM
TGI (OVCAR-3 ovarian): 37.1 µM
TGI (OVCAR-4 ovarian): 3.7 µM
TGI (SF-295 CNS): 46.5 µM
TGI (SK-MEL-2 melanoma): 52.9 µM
TGI (SK-OV-3 ovarian): 28.1 µM
